According to patent US20250230138A1, “COMPOUNDS HAVING A T-STRUCTURE FORMED BY AT LEAST FOUR CYCLES FOR USE IN THE TREATMENT OF CANCER AND OTHER INDICATIONS” (TheRas, Inc., priority 2022, published 2025):
Where two headings read alike, the source gives them in different places.

Experiments:
[1] = tested on: pAKT in BT474 cells; assay: Cell-based pAKT HTRF assay in BT474 cells; details: BT474 cells, 4 hr incubation, read-out: pAKT inhibition IC50 in BT474 cells
Experimental: On Day 1, cells were seeded into 96-well plates at 2.5×10^4 cells/well in complete growth media (DMEM, 10% FBS). On Day 2, cells were treated with compounds at 0.25% DMSO. The source plate was created with compounds diluted in media at 5-fold the final assay concentration. The compounds are run in a 9-point concentration curve starting at 3 μM, with a 3-fold dilution between concentrations. 20 μL was transferred onto the cell plates (final volume in wells was 100 μL). Plates were harvested after 4 hr incubation by aspirating media and adding kit-supplied 1× supplemented lysis buffer to all wells (75 μL per well). Plates were then placed on a plate shaker and incubated at 850 rpm for an additional 30 min. The antibody mixture solution was prepared by diluting aliquoted d2 and Eu Cryptate antibodies 1:20 in kit supplied detection buffer, then mixed the diluted antibodies solutions (1:1 v:v). 4 μL of this solution was then added to a 384-well detection plate (Perkin Elmer; 6008230). Samples were homogenized by pipetting up and down and then transferred (16 μL of cell lysates) from the 96-well cell culture plate to two wells of the HTRF 384-well detection plate containing the antibody solution. Plates were centrifuged (524 g for 1 min) and allowed to incubate between 4 and 24 h at room temperature. The maximum signal is reached after 4 h incubation time and remains stable over a period of 24 hours. Therefore, readings can be made between 4 and 24 h of incubation. Plates were centrifuged again (524 g for 1 m), and analyzed on the EnVision plate reader using the following settings: Excitation 320 nm, Bandwidth […]; Emission 615 nm, Bandwidth […], Gain 10000, Flashes 100, Lag 60 μs.

[2] = target: Cys242 in human PIK3CA (157-299) (Homo sapiens (Human), UniProt P42336); assay: Covalent modification assay using MALDI-TOF MS; format: biochemical; details: 4 h reaction time point
Sequence of Cys242 in human PIK3CA (157-299) (P42336 157-299): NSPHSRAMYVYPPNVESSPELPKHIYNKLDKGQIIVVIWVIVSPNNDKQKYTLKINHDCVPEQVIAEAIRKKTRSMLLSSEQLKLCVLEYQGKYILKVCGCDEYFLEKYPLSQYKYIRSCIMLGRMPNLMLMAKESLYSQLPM
Experimental: Matrix-Assisted Laser Desorption Ionization-Time of Flight Mass Spectrometry (MALDI-TOF MS) analysis of covalent modification of Cys242 in human PIK3CA (157-299) was performed.
Reaction: 3.33 μM or 1 μM of PIK3CA (157-299) protein (produced in-house by Protein Expression Laboratory, FNLCR/Leidos Biomed) in 20 mM HEPES buffer containing 150 mM NaCl, 2 mM MgCl2, pH 7.3 was prepared freshly before assay. Twelve-μL aliquots of protein were dispensed onto low volume 384-well plate, then 470 nL DMSO and 30 nL of tested compounds from 10 mM DMSO stocks were added to appropriate wells using ECHO 555 acoustic liquid handler (Labcyte Inc.). For each reaction/assay, three blanks were prepared by mixing 12 μL of protein solution with 500 nL DMSO. The wells content was carefully mixed by aspiration, and then the plate was sealed by an adhesive cover, centrifuged at 931 g for 1 minute, and kept in the dark at room temperature until 15 min, 30 min, 2 h, or 4 h collections.
Targetpretreatment: Before each assay MALDI target (Bruker MPT 384 ground steel BC) was pre-treated by pipetting on each spot 0.75 μL of saturated sinapinic acid in acetonitrile (ACN).
Sample preparation: At collection time point, 2 μL of reaction mixtures were pipetted out into […] MALDI matrix solution (saturated solution of sinapinic acid in 1:1 ACN:water solution containing 0.15% trifluoroacetic acid (TFA)) deposited on 384 well polypropylene plate. The resulting solution was mixed by aspiration, centrifuged at 931 g for 1 minute, then 1.5 μL aliquots were dispensed on pre-treated MALDI target using Beckman Coulter Biomek FX^P 96/384-Span-8 Laboratory Automation Workstation. Finally, the MALDI target was dried under a mild vacuum to produce spots with a fine crystalline structure.
Measurements: MALDI-TOF measurements were performed on Bruker Daltonics rapifleX Tissuetyper TOF-TOF mass spectrometer using linear mode and mass ranging from 16.0 to 19.6 kDa. Detector gain was set to 0.64×(459 V), sample rate to 5 GS/s, real-time smoothing to medium (175 MHz), laser smart beam pattern was set to “Custom” single smartbeam beam scan with a scan range of 40 μm on both X and Y axis, and the laser frequency was 10000 Hz. Spectra were automatically collected using the custom AutoXecute method. Laser power was auto adjusted using fuzzy control. The peak selection range was set to be between 16.0 and 18.5 kDa. Peak evaluation uses a half-width parameter set to be smaller than 40 Da for processed spectrograms (centroid peak detection; smoothed by SavitzkyGolay algorithm using 7 m/z width and 2 cycles; baseline was subtracted using a median algorithm with flatness 1 and median level 0). Fuzzy control used Proteins/Oligonucleotides protocol with minimum half-width 1/10 times above threshold. Up to 40000 satisfactory shots were collected in 10000 short steps. Dynamic termination was implemented to finish data collection when the peak signal/noise ratio was reaching a value of 1000.
Spectra processing: Spectra were smoothed by SavitzkyGolay algorithm using 7 m/z width and three cycles. Centroid peak detection algorithm was used with signal to noise threshold set to 6, relative intensity threshold 3%, peak width 10 m/z, and median baseline subtraction using flatness of 1 and the median level of 0.1. Peak intensity and area under the peak were evaluated and recorded for all peaks between 16.0 and 19.5 kDa.
Calculation of percent modification: Percent modification was calculated as a ratio of peak height for protein modified by compound to the sum of the peak height of remaining protein plus peak height for protein modified by a compound. If multiple modifications were observed each was calculated as a ratio of peak height for given modification versus the sum of peak heights for all observed protein species.

[3] = 1 μM protein target, 1:5 protein to compound ratio (compounds 853-1279)
[4] = 3.33 μM protein target, 1:7.5 protein to compound ratio (compounds 1-852)
[5] = Homo sapiens, BT-474, Compounds 10-999

| SMILES | IC50 ([1]; Compounds 10-999) [nM] | IC50 ([1]; Compounds 1000-1279) [nM] | IC50 [1, 5] [nM] | % of modification [2, 3] | % of modification [2, 4] |
| --- | --- | --- | --- | --- | --- |
| C=CC(=O)N1CCn2nc(-c3nc(-c4ccc(CC(=O)N(C)C)cc4)c4ccsc4c3-c3c(F)cc(F)cc3OC)cc2[C@H]1C (single isomer, unassigned) [Compound 1146] |  | < 100 |  | A (percent of modification of PIK3CA protein ≥75%) |  |
| C=CC(=O)N1CCn2nc(-c3nc(-c4cnc5c(c4)CN(C)CC5)c4ccsc4c3-c3c(F)cc(F)cc3OC)cc2[C@H]1C (single isomer, unassigned) [Compound 1147] |  | < 100 |  | A (percent of modification of PIK3CA protein ≥75%) |  |
| C=CC(=O)N1CCn2nc(-c3nc(-c4cnc5c(c4)CN(C(C)C)CC5)c4ccsc4c3-c3c(F)cc(F)cc3OC)cc2[C@H]1C (single isomer, unassigned) [Compound 1148] |  | < 100 |  | A (percent of modification of PIK3CA protein ≥75%) |  |
| C=CC(=O)N1CCn2nc(-c3nc(-c4ccc([C@H](NC)C(F)(F)F)cc4)c4ccsc4c3-c3c(F)cc(F)cc3OCCOC)cc2[C@H]1C (single isomer, unassigned) [Compound 1149] |  | < 100 |  | A (percent of modification of PIK3CA protein ≥75%) |  |
| C=CC(=O)N1CCn2nc(-c3nc(-c4ccc([C@H](N(C)C)C(F)(F)F)cc4)c4ccsc4c3-c3c(F)cc(F)cc3OCCOC)cc2[C@H]1C (single isomer, unassigned) [Compound 1150] |  | 100 to 1000 |  | A (percent of modification of PIK3CA protein ≥75%) |  |
| C=CC(=O)N1CCn2nc(-c3nc(-c4ccc(C5(C(=O)NC)CC5)cc4)c4ccsc4c3-c3c(F)cc(F)cc3OC)cc2[C@H]1C (single isomer, unassigned) [Compound 1151] |  | 100 to 1000 |  | A (percent of modification of PIK3CA protein ≥75%) |  |
| C=CC(=O)N1CCC(n2cc(-c3nc(-c4ccc5c(c4)CS(=O)(=O)C5)c4ccsc4c3-c3ccc(F)cc3OCCOC)cn2)CC1 [Compound 61] | < 100 |  |  |  | A (percent of modification of PIK3CA protein ≥75%) |
| C=CC(=O)N1CCC(n2cc(-c3nc(-c4cnn5c4NCCC5)c4ccsc4c3-c3ccc(F)cc3OCCOC)cn2)CC1 [Compound 68] | 100 to 1000 |  |  |  | A (percent of modification of PIK3CA protein ≥75%) |
| C=CC(=O)N1CCC(n2cc(-c3nc(-c4ccc5c(c4)CNC(=O)C5)c4ccsc4c3-c3ccc(F)cc3)cn2)CC1 [Compound 69] | 1000 to 3000 |  |  |  | A (percent of modification of PIK3CA protein ≥75%) |
| C=CC(=O)N1CCC(n2cc(-c3nc(-c4cnn5c4CNCC5)c4ccsc4c3-c3ccc(F)cc3OCCOC)cn2)CC1 [Compound 71] | 100 to 1000 |  |  |  | A (percent of modification of PIK3CA protein ≥75%) |
| C=CC(=O)N1CCC(n2cc(-c3nc(-c4cn(C)cn4)c4ccsc4c3-c3ccc(F)cc3OCCOC)cn2)CC1 [Compound 73] | 100 to 1000 |  |  |  | A (percent of modification of PIK3CA protein ≥75%) |

More lines, main results first:

| IC50 ([1]; Compounds 10-999) [nM] | IC50 ([1]; Compounds 1000-1279) [nM] | IC50 [1, 5] [nM] | SMILES | % of modification [2, 3] | % of modification [2, 4] |
| --- | --- | --- | --- | --- | --- |
| < 100 |  |  | C=CC(=O)N1CCc2ccc(-c3nc(-c4ccc5c(c4)CNC5=O)c4ccsc4c3-c3c(F)cc(F)cc3OCCO)cc2C1 (single isomer, unassigned) [Compound 962] | A (percent of modification of PIK3CA protein ≥75%) |  |
|  | < 100 |  | C=CC(=O)N1CCc2ccc(-c3nc(-c4cn(C)cn4)c4ccsc4c3-c3c(F)cc(F)cc3OCCO)cc2C1 (single isomer, unassigned) [Compound 1000] | A (percent of modification of PIK3CA protein ≥75%) |  |
|  | 100 to 1000 |  | C=CC(=O)N1CCc2ccc(-c3nc(-c4cn(C)cn4)c4ccsc4c3-c3c(F)cc(F)cc3OCCO)cc2C1 (single isomer, unassigned) [Compound 1001] | D (percent of modification <25%) |  |
|  | > 1000 |  | C=CC(=O)N1CCc2nc(-c3nc(-c4ccc5c(c4)CNC5=O)c4ccsc4c3-c3c(F)cc(F)cc3OCCO)sc2C1 (single isomer, unassigned) [Compound 1033] | D (percent of modification <25%) |  |
|  | < 100 |  | C=CC(=O)N1CCn2nc(-c3nc(-c4ccc5c(cnn5C)c4F)c4ccsc4c3-c3c(F)cc(F)cc3OCCO)cc2[C@H]1C (single isomer, unassigned) [Compound 1145] | A (percent of modification of PIK3CA protein ≥75%) |  |
|  |  | < 100 | C=CC(=O)N1CCc2ncc(-c3nc(-c4ccc5c(c4)CCNC5)c4ccsc4c3-c3ccc(F)cc3OCCOC)cc2C1 [Compound 62, 1-[3-[7-[4-fluoro-2-(2-methoxyethoxy)phenyl]-4-(1,2,3,4-tetrahydroisoquinolin-6-yl)thieno[3,2-c]pyridin-6-yl]-7,8-dihydro-5H-1,6-naphthyridin-6-yl]prop-2-en-1-one] |  | A (percent of modification of PIK3CA protein ≥75%) |
| < 100 |  |  | C=CC(=O)N1CC[C@H](n2cc(-c3nc(-c4ccc5c(c4)CCC(O)C5)c4ccsc4c3-c3ccc(F)cc3OCCOC)cn2)C1 (some centres unmarked) [Compound 64] |  | A (percent of modification of PIK3CA protein ≥75%) |
| < 100 |  |  | C=CC(=O)N1CC[C@H](n2cc(-c3nc(-c4ccc5c(c4)CCN(C)C5)c4ccsc4c3-c3ccc(F)cc3OCCOC)cn2)C1 [Compound 67] |  | A (percent of modification of PIK3CA protein ≥75%) |
|  |  | 100 to 1000 | C=CC(=O)N1CCC(c2cc(-c3nc(-c4ccc5c(c4)CCNC5)c4ccsc4c3-c3ccc(F)cc3OCCOC)c[nH]c2=O)C1 (centres unmarked) [Compound 70, 5-[7-[4-fluoro-2-(2-methoxyethoxy)phenyl]-4-(1,2,3,4-tetrahydroisoquinolin-6-yl)thieno[3,2-c]pyridin-6-yl]-3-(1-prop-2-enoylpyrrolidin-3-yl)-1H-pyridin-2-one] |  | A (percent of modification of PIK3CA protein ≥75%) |
| < 100 |  |  | C=CC(=O)N1CC(n2cc(-c3nc(-c4ccc5c(c4)CNC(=O)C5)c4ccsc4c3-c3ccc(F)cc3OCCOC)cn2)C1 [Compound 72] |  | A (percent of modification of PIK3CA protein ≥75%) |
| 1000 to 3000 |  |  | C=CC(=O)NCc1cc(-c2nc(-c3ccc4c(c3)CCNC4)c3ccsc3c2-c2ccc(F)cc2OCCOC)ccc1OC [Compound 74] |  | D (percent of modification <25%) |
